Test results from BigSolDB 2.1.

O=C(O)CCc1nc(-c2ccccc2)c(-c2ccccc2)o1
solubility (mole fraction)
Settings | 278.15 K | 283.15 K | 288.15 K | 293.15 K | 298.15 K | 303.15 K | 308.15 K | 313.15 K | 318.15 K | 323.15 K
in DMAc | 0.205 | 0.213 | 0.223 | 0.232 | 0.243 | 0.252 | 0.261 | 0.273 | 0.284 | 0.295
in DMF | 0.136 | 0.146 | 0.154 | 0.164 | 0.174 | 0.186 | 0.197 | 0.207 | 0.219 | 0.232
in DMSO | – | – | – | 0.214 | 0.226 | 0.24 | 0.256 | 0.272 | 0.287 | 0.303
in ethanol | 0.00257 | 0.00315 | 0.00388 | 0.00476 | 0.00592 | 0.00716 | 0.00894 | 0.0112 | 0.014 | 0.0177
in ethyl acetate | 0.00398 | 0.00472 | 0.00558 | 0.00661 | 0.00778 | 0.00925 | 0.011 | 0.0129 | 0.0151 | 0.0178
in methanol | 0.0023 | 0.00282 | 0.00343 | 0.00426 | 0.00523 | 0.00657 | 0.00821 | 0.0103 | 0.013 | 0.0164
in methyl acetate | 0.00533 | 0.00626 | 0.00735 | 0.00867 | 0.0102 | 0.012 | 0.0146 | 0.0167 | 0.0192 | 0.022
in n-butanol | 0.00266 | 0.00328 | 0.00422 | 0.00533 | 0.00663 | 0.008 | 0.0105 | 0.0131 | 0.0164 | 0.0205
in n-butyl acetate | 0.00293 | 0.00347 | 0.00416 | 0.00489 | 0.00593 | 0.00707 | 0.00842 | 0.01 | 0.012 | 0.0143
in n-pentanol | 0.00266 | 0.00349 | 0.00458 | 0.00561 | 0.00701 | 0.00864 | 0.0108 | 0.0134 | 0.0168 | 0.021
in n-pentyl acetate | 0.00274 | 0.00331 | 0.00387 | 0.0046 | 0.0055 | 0.00654 | 0.00782 | 0.00931 | 0.0111 | 0.0132
in n-propanol | 0.00255 | 0.00326 | 0.00414 | 0.00519 | 0.00637 | 0.00794 | 0.01 | 0.0122 | 0.0161 | 0.0201
in n-propyl acetate | 0.0032 | 0.00386 | 0.00463 | 0.00534 | 0.00656 | 0.00781 | 0.00935 | 0.0111 | 0.0132 | 0.0158
